Data: ChEMBL document CHEMBL6127008, “Discovery and biological evaluation of biaryl acetamide derivatives as selective and in vivo active sphingosine kinase-2 inhibitors” (Eur J Med Chem, 2024)
pIC50, pKi: −log10 of the molar value. ≈ marks a conversion by molar mass, not a printed value. Calls of active or inactive are those of the source. The rule behind the calls is not given here.

Columns and labels:
[1] = Aqueous solubility of compound in phosphate buffer at pH 2.0 by HPLC analysis; format: physicochemical
[2] = system: HepG2; experiment: Induction of apoptosis in human HepG2 cells assessed as necrotic cells at 20 uM incubated for 48 hrs by Annexin V/FITC-PI staining based flow cytometry (reference value: […]); format: functional
[3] = Aqueous solubility of compound in phosphate buffer at pH 7.4 by HPLC analysis; format: physicochemical
[4] = system: HepG2; experiment: Induction of apoptosis in human HepG2 cells assessed as early apoptotic cells at 20 uM incubated for 48 hrs by Annexin V/FITC-PI staining based flow cytometry (reference value: 1.98%); format: functional
[5] = Cytotoxicity against mouse NIH3T3 cells assessed as reduction in cell proliferation incubated for 48 hrs by CCK-8 assay; format: toxicity, cell-based
[6] = system: HepG2; experiment: Induction of apoptosis in human HepG2 cells assessed as late apoptotic cells at 50 uM incubated for 48 hrs by Annexin V/FITC-PI staining based flow cytometry (reference value: 3.32%); format: functional
[7] = system: HepG2; experiment: Induction of apoptosis in human HepG2 cells assessed as necrotic cells at 5 uM incubated for 48 hrs by Annexin V/FITC-PI staining based flow cytometry (reference value: […]); format: functional
[8] = system: HepG2; experiment: Downregulation of SIP level in human HepG2 cells incubated for 48 hrs by SIP competitive ELISA method; format: functional, cell-based; settings: dose 0-60 µM
[9] = system: Mus musculus; experiment: In vivo inhibition SphK2 in female C57BL/6j mouse assessed as decrease in plasma SIP level at 10 to 30 mg/kg, ip measured after 4 hrs by SIP competitive ELISA method; format: functional, organism-based; settings: dose 10-30 mg/kg
[10] = system: HepG2; experiment: Induction of apoptosis in human HepG2 cells assessed as late apoptotic cells at 20 uM incubated for 48 hrs by Annexin V/FITC-PI staining based flow cytometry (reference value: 3.32%); format: functional
[11] = system: HepG2; experiment: Induction of apoptosis in human HepG2 cells assessed as early apoptotic cells at 5 uM incubated for 48 hrs by Annexin V/FITC-PI staining based flow cytometry (reference value: 1.98%); format: functional
[12] = system: HepG2; experiment: Induction of apoptosis in human HepG2 cells assessed as viable cells at 5 uM incubated for 48 hrs by Annexin V/FITC-PI staining based flow cytometry (reference value: 91.15%); format: functional; settings: read-out: Activity
[13] = Aqueous solubility of compound in phosphate buffer at pH 9.0 by HPLC analysis; format: physicochemical
[14] = system: HepG2; experiment: Induction of apoptosis in human HepG2 cells assessed as necrotic cells at 50 uM incubated for 48 hrs by Annexin V/FITC-PI staining based flow cytometry (reference value: […]); format: functional
[15] = system: HepG2; experiment: Inhibition of cell migration in human HepG2 cells assessed as scratch healing incubated for 24 to 48 hrs by wound healing assay; format: functional, cell-based; settings: dose 10-30 µM, time lower 24.0 hrs, time upper […]
[16] = system: HepG2; experiment: Induction of apoptosis in human HepG2 cells assessed as viable cells at 50 uM incubated for 48 hrs by Annexin V/FITC-PI staining based flow cytometry (reference value: 91.15%); format: functional; settings: read-out: Activity
[17] = system: HepG2; experiment: Induction of apoptosis in human HepG2 cells assessed as viable cells at 20 uM incubated for 48 hrs by Annexin V/FITC-PI staining based flow cytometry (reference value: 91.15%); format: functional; settings: read-out: Activity
[18] = system: Hepa 1-6; experiment: cells; settings: Mus musculus, Hepa1-6, 48 h
[19] = system: HepG2; experiment: Induction of apoptosis in human HepG2 cells assessed as early apoptotic cells at 50 uM incubated for 48 hrs by Annexin V/FITC-PI staining based flow cytometry (reference value: 1.98%); format: functional
[20] = system: HepG2; experiment: Induction of apoptosis in human HepG2 cells assessed as late apoptotic cells at 5 uM incubated for 48 hrs by Annexin V/FITC-PI staining based flow cytometry (reference value: 3.32%); format: functional
[21] = system: HepG2; experiment: cells; settings: Homo sapiens, HepG2, 48 h
[22] = system: MCF7; experiment: cells; settings: Homo sapiens, MCF7, 48 h
[23] = system: MC-38; experiment: cells; settings: Mus musculus, MC-38, 48 h
[24] = system: HepG2; experiment: Induction of cell cycle arrest in human HepG2 cells assessed as accumulation of cell at G2 phase at 0 to 50 uM incubated for 48 hrs by PI staining based flow cytometric analysis; format: functional; settings: dose 0-50 µM
[25] = system: HepG2; experiment: Upregulation od SPH level in human HepG2 cell incubated for 48 hrs by SPH competitive ELISA method; format: functional, cell-based; settings: dose 0-60 µM
[26] = target: Sphingosine kinase 1 (Homo sapiens, UniProt Q9NYA1); experiment: Inhibition of SphK1 (unknown origin)
[27] = target: T1, Sphingosine kinase 2 (Homo sapiens, UniProt Q9NRA0); experiment: Inhibition of SphK2 (unknown origin) using sphingosine as substrate incubated for 30 mins in presence of ATP by ADP-Glo assay
T1 sequence (Q9NRA0 whole entry): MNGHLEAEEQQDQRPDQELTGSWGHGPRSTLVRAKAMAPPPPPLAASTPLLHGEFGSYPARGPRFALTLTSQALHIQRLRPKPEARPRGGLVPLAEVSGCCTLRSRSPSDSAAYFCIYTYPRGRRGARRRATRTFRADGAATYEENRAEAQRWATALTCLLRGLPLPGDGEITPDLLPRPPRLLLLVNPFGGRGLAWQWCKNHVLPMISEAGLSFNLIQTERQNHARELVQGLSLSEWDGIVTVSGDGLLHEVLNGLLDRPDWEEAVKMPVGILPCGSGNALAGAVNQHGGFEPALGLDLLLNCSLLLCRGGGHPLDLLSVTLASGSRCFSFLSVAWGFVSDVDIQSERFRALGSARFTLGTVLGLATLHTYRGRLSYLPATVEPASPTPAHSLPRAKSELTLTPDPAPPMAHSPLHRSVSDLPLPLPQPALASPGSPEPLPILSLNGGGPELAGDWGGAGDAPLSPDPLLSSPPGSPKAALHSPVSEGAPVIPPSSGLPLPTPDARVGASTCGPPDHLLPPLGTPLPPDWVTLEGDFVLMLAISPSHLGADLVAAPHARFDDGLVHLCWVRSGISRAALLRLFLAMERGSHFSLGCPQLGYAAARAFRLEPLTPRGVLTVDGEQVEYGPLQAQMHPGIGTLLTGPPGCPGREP

[28] = target: T1, Sphingosine kinase 2; experiment: Inhibition of SphK2 (unknown origin)

Chain of Sphingosine kinase 1 (Q9NYA1 whole entry): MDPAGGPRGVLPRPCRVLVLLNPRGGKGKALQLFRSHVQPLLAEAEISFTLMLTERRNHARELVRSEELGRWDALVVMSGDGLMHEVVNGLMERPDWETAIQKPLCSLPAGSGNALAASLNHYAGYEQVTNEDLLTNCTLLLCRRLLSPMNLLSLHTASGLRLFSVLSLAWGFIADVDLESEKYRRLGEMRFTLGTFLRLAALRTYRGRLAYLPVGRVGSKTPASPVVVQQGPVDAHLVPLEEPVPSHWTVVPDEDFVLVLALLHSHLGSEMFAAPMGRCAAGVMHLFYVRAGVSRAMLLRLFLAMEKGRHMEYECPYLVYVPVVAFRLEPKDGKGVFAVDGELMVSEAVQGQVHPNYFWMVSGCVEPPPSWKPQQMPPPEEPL

## O=C(Cc1ccc(-c2ccc(OCc3ccc(Cl)c(Cl)c3)nc2)cc1)N1CCC[C@H]1CO
[1]
  solubility: 6.87 µM (≈ 3.24 µg/mL)
[2]
  Activity: 4.62%
[3]
  solubility: 197 µM (≈ 92.6 µg/mL)
[4]
  Activity: 1.46%
[5]
  IC50 at 48 h: > 100 µM
[6]
  Activity: 10.09%
[7]
  Activity: 6.77%
[8]
  Activity: Dose-Dependent Effect
[9]
  Activity: Active
[10]
  Activity: 11.01%
[11]
  Activity: 0.93%
[12]
  viability at 5 µM: 85.7%
[13]
  solubility: 46.9 µM (≈ 22.1 µg/mL)
[14]
  Activity: 11.19%
[15]
  Activity: Dose-Dependent Effect
[16]
  viability at 50 µM: 67.6%
[17]
  viability at 20 µM: 82.9%
[18]
  pIC50: 4.34
[19]
  Activity: 11.1%
[20]
  Activity: 6.61%
[21]
  pIC50: 4.59
[22]
  pIC50: 4.83
[23]
  pIC50: 4.68
[24]
  Activity: Active
[25]
  Activity: Dose-Dependent Effect

## O=C(Cc1ccc(-c2ccc(OCc3ccc(Cl)cc3)nc2)cc1)N1CCC[C@H]1CO
[5]
  IC50 at 48 h: > 100 µM
[18]
  pIC50: 4.31
[21]
  pIC50: 4.57
[22]
  pIC50: 4.27
[23]
  pIC50: 4.24

## NC(=O)[C@@H]1CCCN1C(=O)Cc1ccc(-c2ccc(OCc3ccc(Cl)c(Cl)c3)nc2)cc1
[5]
  IC50 at 48 h: > 100 µM
[18]
  pIC50: 4.43
[21]
  pIC50: 4.17
[22]
  pIC50: 4.49
[23]
  pIC50: < 4.00

## CCCCCCCCc1ccc(CC[C@](N)(CO)COC)cc1
[26]
  pKi: 4.30

## O=C(NCc1ccncc1)C12CC3CC(C1)CC(c1ccc(Cl)cc1)(C3)C2 [ABC-294640]
[27]
  pIC50: 4.94
[5]
  IC50 at 48 h: > 100 µM
[18]
  pIC50: 4.38
[21]
  pIC50: 4.59
[22]
  pIC50: 4.48
[23]
  pIC50: 4.46

## O=C(Cc1ccc(-c2ccc(OCc3ccc(Cl)c(Cl)c3)nc2)cc1)N1CCC(O)CC1
[1]
  solubility: 11.6 µM (≈ 5.48 µg/mL)
[3]
  solubility: 183 µM (≈ 86.5 µg/mL)
[5]
  IC50 at 48 h: > 100 µM
[13]
  solubility: 59.6 µM (≈ 28.1 µg/mL)
[18]
  pIC50: 4.23
[21]
  pIC50: < 4.00
[22]
  pIC50: 4.44
[23]
  pIC50: 4.78

## CCCCCOc1ccc2cc(-c3noc([C@@H]4[C@@H](O)CCN4C(=N)N)n3)ccc2c1
[27]
  pIC50: 5.82

## NC(=O)[C@@H]1CCCN1C(=O)Cc1ccc(-c2ccc(OCc3ccc(Cl)cc3)nc2)cc1
[5]
  IC50 at 48 h: > 100 µM
[18]
  pIC50: 4.56
[21]
  pIC50: 4.46
[22]
  pIC50: 4.60
[23]
  pIC50: 4.39

## CS(=O)(=O)c1ccc(-c2sc(NS(=O)(=O)c3ccc(Br)cc3)nc2-c2ccccc2)cc1
[28]
  pIC50: < 5.00

## O=C(Cc1ccc(-c2cnc(OCc3ccc(C(F)(F)F)cc3)cn2)cc1)N1CCC[C@H]1CO
[1]
  solubility: 38.6 µM (≈ 18.2 µg/mL)
[3]
  solubility: 164 µM (≈ 77.5 µg/mL)
[5]
  IC50 at 48 h: > 100 µM
[8]
  Activity: Dose-Dependent Effect
[13]
  solubility: 60.4 µM (≈ 28.5 µg/mL)
[18]
  pIC50: 4.58
[21]
  pIC50: 4.75
[22]
  pIC50: 4.49
[23]
  pIC50: 4.44
[25]
  Activity: Dose-Dependent Effect

## O=C(Cc1ccc(-c2cnc(OCc3ccc(Cl)cc3)cn2)cc1)N1CCC[C@H]1CO
[5]
  IC50 at 48 h: > 100 µM
[18]
  pIC50: 4.24
[21]
  pIC50: 4.33
[22]
  pIC50: < 4.00
[23]
  pIC50: < 4.00

## NC(=O)[C@@H]1CCCN1C(=O)Cc1ccc(-c2ccc(OCc3ccccc3)nc2)cc1
[5]
  IC50 at 48 h: > 100 µM
[18]
  pIC50: 4.18
[21]
  pIC50: < 4.00
[22]
  pIC50: < 4.00
[23]
  pIC50: < 4.00
